Test results: publication PMC12216609, “Inhibitors of eIF1A-ribosome interaction unveil uORF-dependent regulation of translation initiation and antitumor and antiviral effects” (The EMBO Journal, 2025)
Values joined by “and” are separate entries in the source; they are usually repeats but may differ in a detail not shown here. Identical values can stand only once. Like-named read-outs stand apart in the source and are kept apart here.

Key:
[1] = target: T1, eIF1A (Homo sapiens, UniProt P47813); assay type: binding; details: for fluorescence ratio, eIF1A: background-corrected, relative to DMSO or lowest 1Ai concentration, replicate columns
T1 construct: His-bdSUMO (cleaved yes); made in house; host or cells: E. coli BL-21
T1 sequence (P47813 whole entry): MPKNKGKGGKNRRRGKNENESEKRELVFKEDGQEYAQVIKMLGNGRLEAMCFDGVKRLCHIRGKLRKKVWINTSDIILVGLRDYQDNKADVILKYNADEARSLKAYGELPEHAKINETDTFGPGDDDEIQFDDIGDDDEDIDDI

[2] = target: NSP1 (Severe acute respiratory syndrome coronavirus 2, UniProt P0DTD1)
[3] = target: T2, eIF1A without CTT (Homo sapiens, UniProt P47813); assay type: binding; details: for fluorescence ratio, eIF1A Δ CTT: background-corrected, relative to DMSO or lowest 1Ai concentration, replicate columns
T2 construct: His-bdSUMO (cleaved yes); made in house; host or cells: E. coli (BL-21)
T2 sequence (P47813 1-114 limits assumed): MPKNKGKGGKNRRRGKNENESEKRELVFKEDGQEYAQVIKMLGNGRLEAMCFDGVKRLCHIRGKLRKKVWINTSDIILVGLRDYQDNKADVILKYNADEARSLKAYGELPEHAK

[4] = target: T3, eIF1A-RPS10 interaction (Homo sapiens, UniProt P46783+P47813); assay: Split-Renilla luciferase eIF1A-RPS10 interaction screen, dose-response; assay type: biochemical; details: summary table; read-out: IC50 concentration (µM), IC50 screen
T3 construct: made in house; host or cells: E. coli BL21 (PRSFduet); unpurified lysate supernatant
T3 sequence (P47813 whole entry, one chain of several): as the sequence (P47813 whole entry) above
Outline: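 Split-Renilla luciferase complementation using bacterially expressed (BL21) eIF1A-ΔC-Renilla and RPS10-ΔN-Renilla in clarified lysates (TKE buffer); eIF1A C-terminus fused to N-RL. Compound interference with eIF1A-RPS10 interaction read as loss of reconstituted RL activity; split-RL halves alone served as controls.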

[5] = target: T4, eIF1A without NTT (Homo sapiens, UniProt P47813); assay: Fluorescence binding assay with NTT-truncated eIF1A; details: for fluorescence ratio, eIF1A Δ NTT: background-corrected, relative to DMSO or lowest 1Ai concentration, replicate columns
T4 construct: His-bdSUMO (cleaved yes); made in house; host or cells: E. coli (BL-21)
T4 sequence (P47813 31-144 limits assumed): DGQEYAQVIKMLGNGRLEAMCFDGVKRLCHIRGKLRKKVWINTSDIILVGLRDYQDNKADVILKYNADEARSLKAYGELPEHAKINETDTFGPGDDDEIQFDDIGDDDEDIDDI

[6] = eIF1A, from the titration data, read-out: IC50 (eIF1A titration block)
[7] = summary table, fluorescence binding assay, read-out: IC50 concentration (µM), WT eIF1A
[8] = eIF1A Δ NTT, from the titration data, read-out: IC50 (eIF1A Δ NTT titration block)
[9] = summary table, fluorescence binding assay, read-out: IC50 concentration (µM), NTT truncation
[10] = 1Ai conc. 0.5 uM, listed as 5662
[11] = eIF1A Δ CTT, from the titration data, read-out: IC50 (eIF1A Δ CTT titration block)
[12] = summary table, fluorescence binding assay, read-out: IC50 concentration (µM), CTT truncation

## CN1CCN(S(=O)(=O)c2ccc(N3Cc4cc5c(cc4C4(CCCC4)C3)OCCO5)nc2)CC1 [1Ai-3564]
[1]; 1Ai conc. 0.25 uM
  fluorescence ratio, eIF1A: 1.044 and 1
[1]; 1Ai conc. 0.5 uM
  fluorescence ratio, eIF1A: 1.089 and 1.095
[1]; 1Ai conc. 1 uM
  fluorescence ratio, eIF1A: 1.239 and 0.9891
[1]; 1Ai conc. 2 uM
  fluorescence ratio, eIF1A: 1.143 and 0.9513
[1]; 1Ai conc. 4 uM
  fluorescence ratio, eIF1A: 1.209 and 0.9045
[1]; 1Ai conc. 8 uM
  fluorescence ratio, eIF1A: 1.156 and 0.8599
[1]; 1Ai conc. 16 uM
  fluorescence ratio, eIF1A: 1.357 and 1.021
[1]; 1Ai conc. 32 uM
  fluorescence ratio, eIF1A: 1.557 and 1.107
[1]; 1Ai conc. 64 uM
  fluorescence ratio, eIF1A: 1.6 and 1.164
[1]; 1Ai conc. 256 uM
  fluorescence ratio, eIF1A: 1.73 and 1.413
[1]; [6]
  IC50: 35.2 µM
[1]; [7]
  IC50: 35.3 µM
[2]
  GFP reporter ratio nsp1/gfp, avg: 0.5007
  GFP reporter ratio nsp1/gfp, rep 1: 0.5007
  gfp signal, mean of duplicate wells: 362.5
  nsp1 signal, mean of duplicate wells: 181.5
  ratio (nsp1/gfp): 0.501
[3]
  binding to CTT-truncated eIF1A: compromised
[3]; 1Ai conc. 0.25 uM
  fluorescence ratio, eIF1A Δ CTT: 1.127 and 1.051
[3]; 1Ai conc. 0.5 uM
  fluorescence ratio, eIF1A Δ CTT: 1.14 and 1.091
[3]; 1Ai conc. 1 uM
  fluorescence ratio, eIF1A Δ CTT: 1.087 and 1.0877
[3]; 1Ai conc. 2 uM
  fluorescence ratio, eIF1A Δ CTT: 1.109 and 1.056
[3]; 1Ai conc. 4 uM
  fluorescence ratio, eIF1A Δ CTT: 1.011 and 1.035
[3]; 1Ai conc. 8 uM
  fluorescence ratio, eIF1A Δ CTT: 0.8478 and 0.8594
[3]; 1Ai conc. 16 uM
  fluorescence ratio, eIF1A Δ CTT: 0.8634 and 0.8337
[3]; 1Ai conc. 32 uM
  fluorescence ratio, eIF1A Δ CTT: 0.9829 and 0.8523
[3]; 1Ai conc. 64 uM
  fluorescence ratio, eIF1A Δ CTT: 1.0625 and 1.083
[3]; 1Ai conc. 256 uM
  fluorescence ratio, eIF1A Δ CTT: 1.108 and 1.021
[3]; eIF1A without CTT
  CTT truncation IC50: No binding
[3]; summary table, fluorescence binding assay
  IC50 concentration (µM), CTT truncation: No binding
[4]
  IC50: 15 µM
[5]; 1Ai conc. 0.25 uM
  fluorescence ratio, eIF1A Δ NTT: 1
[5]; 1Ai conc. 0.5 uM
  fluorescence ratio, eIF1A Δ NTT: 1.007
[5]; 1Ai conc. 1 uM
  fluorescence ratio, eIF1A Δ NTT: 0.9932
[5]; 1Ai conc. 2 uM
  fluorescence ratio, eIF1A Δ NTT: 1.2
[5]; 1Ai conc. 4 uM
  fluorescence ratio, eIF1A Δ NTT: 1.048
[5]; 1Ai conc. 8 uM
  fluorescence ratio, eIF1A Δ NTT: 1.009
[5]; 1Ai conc. 16 uM
  fluorescence ratio, eIF1A Δ NTT: 1.298
[5]; 1Ai conc. 32 uM
  fluorescence ratio, eIF1A Δ NTT: 1.4
[5]; 1Ai conc. 64 uM
  fluorescence ratio, eIF1A Δ NTT: 1.423
[5]; 1Ai conc. 256 uM
  fluorescence ratio, eIF1A Δ NTT: 1.807
[5]; [8]
  IC50: 43.2 µM
[5]; [9]
  IC50: 43.2 µM

## CN(C)CC1CCn2cc(c3ccccc32)C2=C(C(=O)NC2=O)c2cn(c3ccccc23)CCO1 (stereo not shown) [1Ai-5662]
[1]; 1Ai conc. 0.25 uM
  fluorescence ratio, eIF1A: 0.7967 and 0.9449
[1]; [10]
  fluorescence ratio, eIF1A: 0.8569 and 0.971
[1]; 1Ai conc. 1 uM
  fluorescence ratio, eIF1A: 0.7317 and 0.9217
[1]; 1Ai conc. 2 uM
  fluorescence ratio, eIF1A: 1.065 and 0.7855
[1]; 1Ai conc. 4 uM
  fluorescence ratio, eIF1A: 1.002 and 0.7942
[1]; 1Ai conc. 8 uM
  fluorescence ratio, eIF1A: 0.774 and 0.658
[1]; 1Ai conc. 16 uM
  fluorescence ratio, eIF1A: 0.5642 and 0.6667
[1]; 1Ai conc. 32 uM
  fluorescence ratio, eIF1A: 0.2341 and 0.4609
[1]; 1Ai conc. 64 uM
  fluorescence ratio, eIF1A: 0.1593 and 0.2928
[1]; 1Ai conc. 256 uM
  fluorescence ratio, eIF1A: 0.1171 and 0.07826
[1]; [6]
  IC50: 20.9 µM
[1]; [7]
  IC50: 20.9 µM
[2]
  GFP reporter ratio nsp1/gfp, avg: 0.4084
  GFP reporter ratio nsp1/gfp, rep 1: 0.4084
  gfp signal, mean of duplicate wells: 442
  nsp1 signal, mean of duplicate wells: 180.5
  ratio (nsp1/gfp): 0.408
[3]; 1Ai conc. 0.25 uM
  fluorescence ratio, eIF1A Δ CTT: 0.8742 and 0.9398
[3]; [10]
  fluorescence ratio, eIF1A Δ CTT: 0.8855 and 0.8821
[3]; 1Ai conc. 1 uM
  fluorescence ratio, eIF1A Δ CTT: 0.8798 and 0.8003
[3]; 1Ai conc. 2 uM
  fluorescence ratio, eIF1A Δ CTT: 0.8074 and 0.8109
[3]; 1Ai conc. 4 uM
  fluorescence ratio, eIF1A Δ CTT: 0.7089 and 0.7163
[3]; 1Ai conc. 8 uM
  fluorescence ratio, eIF1A Δ CTT: 0.4859 and 0.6001
[3]; 1Ai conc. 16 uM
  fluorescence ratio, eIF1A Δ CTT: 0.4269 and 0.4563
[3]; 1Ai conc. 32 uM
  fluorescence ratio, eIF1A Δ CTT: 0.2954 and 0.3164
[3]; 1Ai conc. 64 uM
  fluorescence ratio, eIF1A Δ CTT: 0.164 and 0.1518
[3]; 1Ai conc. 256 uM
  fluorescence ratio, eIF1A Δ CTT: 0.1171 and 0.08567
[3]; [11]
  IC50: 12.4 µM
[3]; [12]
  IC50: 12.4 µM
[4]
  IC50: 25 µM
[5]; 1Ai conc. 0.25 uM
  fluorescence ratio, eIF1A Δ NTT: 0.839 and 0.8682 and 1
[5]; 1Ai conc. 0.5 uM
  fluorescence ratio, eIF1A Δ NTT: 1.068
[5]; [10]
  fluorescence ratio, eIF1A Δ NTT: 0.9101 and 0.8837
[5]; 1Ai conc. 1 uM
  fluorescence ratio, eIF1A Δ NTT: 0.9026 and 0.9044 and 1.056
[5]; 1Ai conc. 2 uM
  fluorescence ratio, eIF1A Δ NTT: 0.8689 and 0.9922 and 1.016
[5]; 1Ai conc. 4 uM
  fluorescence ratio, eIF1A Δ NTT: 0.8614 and 0.9638 and 0.988
[5]; 1Ai conc. 8 uM
  fluorescence ratio, eIF1A Δ NTT: 0.8277 and 0.845 and 0.9679
[5]; 1Ai conc. 16 uM
  fluorescence ratio, eIF1A Δ NTT: 0.6816 and 0.8424 and 0.9197
[5]; 1Ai conc. 32 uM
  fluorescence ratio, eIF1A Δ NTT: 0.5918 and 0.6641 and 0.7952
[5]; 1Ai conc. 64 uM
  fluorescence ratio, eIF1A Δ NTT: 0.4307 and 0.4574 and 0.6064
[5]; 1Ai conc. 256 uM
  fluorescence ratio, eIF1A Δ NTT: 0.2846 and 0.3101 and 0.4458
[5]; [8]
  IC50: 37.9 µM
[5]; [9]
  IC50: 37.9 µM

## Cc1ccc(C(=O)c2cc(O)c(O)c([N+](=O)[O-])c2)cc1 [1Ai-5576]
[1]; 1Ai conc. 0.25 uM
  fluorescence ratio, eIF1A: 0.7537 and 0.6505
[1]; 1Ai conc. 0.5 uM
  fluorescence ratio, eIF1A: 0.6672 and 0.6249
[1]; 1Ai conc. 1 uM
  fluorescence ratio, eIF1A: 0.6232 and 0.5058
[1]; 1Ai conc. 2 uM
  fluorescence ratio, eIF1A: 0.6427 and 0.4189
[1]; 1Ai conc. 4 uM
  fluorescence ratio, eIF1A: 0.6101 and 0.3891
[1]; 1Ai conc. 8 uM
  fluorescence ratio, eIF1A: 0.5237 and 0.3506
[1]; 1Ai conc. 16 uM
  fluorescence ratio, eIF1A: 0.4763 and 0.3127
[1]; 1Ai conc. 32 uM
  fluorescence ratio, eIF1A: 0.3344 and 0.3594
[1]; 1Ai conc. 64 uM
  fluorescence ratio, eIF1A: 0.3785 and 0.2952
[1]; 1Ai conc. 256 uM
  fluorescence ratio, eIF1A: 0.2822 and 0.2602
[1]; [6]
  IC50: 0.926 µM
[1]; [7]
  IC50: 0.9 µM
[2]
  GFP reporter ratio nsp1/gfp, avg: 0.4237
  GFP reporter ratio nsp1/gfp, rep 1: 0.4237
  gfp signal, mean of duplicate wells: 2857
  nsp1 signal, mean of duplicate wells: 1210.5
  ratio (nsp1/gfp): 0.424
[3]; 1Ai conc. 0.25 uM
  fluorescence ratio, eIF1A Δ CTT: 0.7373 and 0.785
[3]; 1Ai conc. 0.5 uM
  fluorescence ratio, eIF1A Δ CTT: 0.8173 and 0.7741
[3]; 1Ai conc. 1 uM
  fluorescence ratio, eIF1A Δ CTT: 0.744 and 0.7009
[3]; 1Ai conc. 2 uM
  fluorescence ratio, eIF1A Δ CTT: 0.6013 and 0.6558
[3]; 1Ai conc. 4 uM
  fluorescence ratio, eIF1A Δ CTT: 0.5053 and 0.5218
[3]; 1Ai conc. 8 uM
  fluorescence ratio, eIF1A Δ CTT: 0.4227 and 0.4252
[3]; 1Ai conc. 16 uM
  fluorescence ratio, eIF1A Δ CTT: 0.332 and 0.3364
[3]; 1Ai conc. 32 uM
  fluorescence ratio, eIF1A Δ CTT: 0.26 and 0.2352
[3]; 1Ai conc. 64 uM
  fluorescence ratio, eIF1A Δ CTT: 0.208 and 0.1745
[3]; 1Ai conc. 256 uM
  fluorescence ratio, eIF1A Δ CTT: 0.1973 and 0.1667
[3]; [11]
  IC50: 5.38 µM
[3]; [12]
  IC50: 5.4 µM
[4]
  IC50: 24 µM
[5]
  binding to NTT-truncated eIF1A: significantly decreased
[5]; 1Ai conc. 0.25 uM
  fluorescence ratio, eIF1A Δ NTT: 0.8023 and 0.892
[5]; 1Ai conc. 0.5 uM
  fluorescence ratio, eIF1A Δ NTT: 0.7712 and 0.8267
[5]; 1Ai conc. 1 uM
  fluorescence ratio, eIF1A Δ NTT: 0.7599 and 0.8722
[5]; 1Ai conc. 2 uM
  fluorescence ratio, eIF1A Δ NTT: 0.7825 and 0.8608
[5]; 1Ai conc. 4 uM
  fluorescence ratio, eIF1A Δ NTT: 0.6215 and 0.8636
[5]; 1Ai conc. 8 uM
  fluorescence ratio, eIF1A Δ NTT: 0.5932 and 0.9091
[5]; 1Ai conc. 16 uM
  fluorescence ratio, eIF1A Δ NTT: 0.5932 and 0.7358
[5]; 1Ai conc. 32 uM
  fluorescence ratio, eIF1A Δ NTT: 0.5395 and 0.6733
[5]; 1Ai conc. 64 uM
  fluorescence ratio, eIF1A Δ NTT: 0.7175 and 0.7159
[5]; 1Ai conc. 256 uM
  fluorescence ratio, eIF1A Δ NTT: 0.4605 and 0.6165
